This is an account of results in US12622910B2, “Inhibitors of Bruton's tyrosine kinase and methods of their use” (Janssen Pharmaceutica NV, priority 2021, dated 2026).

Some results are limits rather than exact numbers.

Data set [1] in a line: Metabolic stability in liver microsomes. In kind it is in vitro ADME, dog. The protocol:
(§1) Additional Data on Preclinical PK Profile—Protein binding of the compound of Formula (III) was studied using an equilibrium dialysis method in plasma from human, cynomolgus monkey, beagle dog, Sprague Dawley rat, CD-1 mouse, and guinea pig at 0.25, 2.5, and 25 μM. […] In human and monkey, the plasma protein binding was concentration dependent. […] Free fraction of the compound of Formula (III) in liver microsomes from various species ranged from 75.1% to 87.9% at 0.25 mg/mL and from 58.9% to 86.5% at 1.0 mg/mL (Table 17). […] In hepatocytes, the compound of Formula (III) turnover followed a similar trend, with T1/2 ranging from 75.3 minutes in monkey to 278.1 minutes in human.
For orientation: Microsomes from liver hold many membrane-bound enzymes, among them those of drug oxidation.

A short description of data set [2]: Metabolic stability in hepatocytes. Type of data set: in vitro ADME, monkey. The method, then: as §1
The nature of data set [3]: Blood-to-plasma concentration ratio. The following applies: rat, fresh blood. In kind it is in vitro ADME.
For a further data set, the target named is N neuronal α4β2 (h) (Homo sapiens, UniProt P17787+P43681). Put plainly: Receptor panel, Study 2. In kind it is binding. The method, then:
(§2) RESULTS AND DISCUSSION—Selectivity—The compound of Formula (III) was evaluated in three selectivity panels to assess the potential for off-target pharmacology (Table 8). […] The kinase off-target profile of The compound of Formula (III) was assessed in a full human wild-type panel using radiometric kinase activity assays (KinaseProfiler™ and IC50Profiler™; Eurofins Scientific) (Table 9; FIG. 23). The compound of Formula (III) inhibited 4/278 kinases >50% at 1 micromolar, identifying BTK and the three other kinases having analogous Cys residues with the potential for covalent inhibition (BMX, TEC, BLK). […]. The cellular kinase selectivity of The compound of Formula (III) was established in native Ramos B cell kinome assays (KiNativ™; ActivX) confirmed BTK as the primary target with inhibition of BLK and TEC inhibition detected (Table 10).

A further data set deals with CB2 (h) (Homo sapiens, UniProt P34972). Description: Receptor panel, Study 2. Type of data set: binding. The protocol:
as §2

For another data set, the target named is GR (h) (Homo sapiens, UniProt P04150). Put plainly: Receptor panel, Study 2. Type of data set: binding. The method, then:
as §2

The target of a further data set is mGluR5 (h) (Homo sapiens, UniProt P41594). Description: Receptor panel, Study 2. In kind it is binding. The protocol:
as §2

The next data set deals with Ach (h) (Homo sapiens, UniProt P22303). Put plainly: Receptor panel, Study 2. In kind it is binding. The protocol: as §2
Ach (h), sequence (P22303 32-614): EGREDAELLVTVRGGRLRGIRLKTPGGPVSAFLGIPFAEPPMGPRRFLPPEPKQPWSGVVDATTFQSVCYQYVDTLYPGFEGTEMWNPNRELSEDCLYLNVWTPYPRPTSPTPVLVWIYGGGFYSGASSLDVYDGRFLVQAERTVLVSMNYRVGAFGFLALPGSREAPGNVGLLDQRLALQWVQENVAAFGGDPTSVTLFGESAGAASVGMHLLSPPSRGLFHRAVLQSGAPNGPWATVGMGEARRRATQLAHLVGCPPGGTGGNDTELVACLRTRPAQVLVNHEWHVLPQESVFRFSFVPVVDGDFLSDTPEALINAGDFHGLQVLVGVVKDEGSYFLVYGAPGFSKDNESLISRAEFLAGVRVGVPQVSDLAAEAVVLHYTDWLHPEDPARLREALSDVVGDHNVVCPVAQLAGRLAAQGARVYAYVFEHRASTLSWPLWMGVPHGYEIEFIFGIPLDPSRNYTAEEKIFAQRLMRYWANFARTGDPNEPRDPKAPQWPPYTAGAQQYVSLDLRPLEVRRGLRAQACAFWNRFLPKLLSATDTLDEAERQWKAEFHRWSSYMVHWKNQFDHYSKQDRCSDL
Another data set addresses Beta2 (h) (Homo sapiens, UniProt P07550). Description: Receptor panel, Study 2. In kind it is binding. The method, then:
as §2

The next data set has as its target PDE3A (h) (Homo sapiens, UniProt Q14432). Put plainly: Receptor panel, Study 2. In kind it is binding. The protocol:
as §2

The next data set concerns the target CB1 (h) (Homo sapiens, UniProt P21554). Description: Receptor panel, Study 2. In kind it is binding. The protocol: as §2
The target of another data set is PDE4D2 (h) (Homo sapiens, UniProt Q08499). Put plainly: Receptor panel, Study 2. Type of data set: binding. The method, then: as §2
PDE4D2 (h), sequence (Q08499 303-809 limits assumed): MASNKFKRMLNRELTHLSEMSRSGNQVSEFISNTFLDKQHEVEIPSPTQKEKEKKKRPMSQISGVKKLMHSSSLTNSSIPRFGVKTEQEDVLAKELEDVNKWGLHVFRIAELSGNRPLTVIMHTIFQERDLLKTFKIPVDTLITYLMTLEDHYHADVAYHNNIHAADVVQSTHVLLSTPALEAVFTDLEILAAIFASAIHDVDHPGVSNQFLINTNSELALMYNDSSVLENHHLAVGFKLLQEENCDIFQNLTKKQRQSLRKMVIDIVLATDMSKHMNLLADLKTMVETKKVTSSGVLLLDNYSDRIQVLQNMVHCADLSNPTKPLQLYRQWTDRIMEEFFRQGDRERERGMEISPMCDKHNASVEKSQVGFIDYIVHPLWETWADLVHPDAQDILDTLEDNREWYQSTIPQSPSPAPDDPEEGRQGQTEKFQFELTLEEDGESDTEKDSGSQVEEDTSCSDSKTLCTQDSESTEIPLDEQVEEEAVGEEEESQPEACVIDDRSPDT
The target in another data set is MAO-A (Rattus norvegicus, UniProt P21396). Put plainly: Receptor panel, Study 2. In kind it is binding. The method, then: as §2
For the next data set, the system named is NMDA. Put plainly: Receptor panel, Study 2. Type of data set: binding. The protocol: as §2
In a further data set the target is AR (h) (Homo sapiens, UniProt P10275). Description: Receptor panel, Study 2. In kind it is binding. The protocol:
as §2

The next data set deals with Ca channel. Put plainly: Receptor panel, Study 2. Type of data set: binding. The method, then: as §2
A further data set addresses T1, CYP3A4 (Homo sapiens, UniProt P08684).
T1 construct: with specific CYP probe substrates in human liver microsomes; from tissue; host or cells: human liver microsomes
Put plainly: Chemical inhibition of turnover in pooled human liver microsomes (ketoconazole). Type of data set: in vitro ADME. The following applies: 1 μM, HLM 0.5 mg/mL.

The test system of another data set is P-gp (MDR1). Description: in vitro. The following applies: dog, MDCK-MDR1.

mGluR5 (h), sequence (P41594 21-1212): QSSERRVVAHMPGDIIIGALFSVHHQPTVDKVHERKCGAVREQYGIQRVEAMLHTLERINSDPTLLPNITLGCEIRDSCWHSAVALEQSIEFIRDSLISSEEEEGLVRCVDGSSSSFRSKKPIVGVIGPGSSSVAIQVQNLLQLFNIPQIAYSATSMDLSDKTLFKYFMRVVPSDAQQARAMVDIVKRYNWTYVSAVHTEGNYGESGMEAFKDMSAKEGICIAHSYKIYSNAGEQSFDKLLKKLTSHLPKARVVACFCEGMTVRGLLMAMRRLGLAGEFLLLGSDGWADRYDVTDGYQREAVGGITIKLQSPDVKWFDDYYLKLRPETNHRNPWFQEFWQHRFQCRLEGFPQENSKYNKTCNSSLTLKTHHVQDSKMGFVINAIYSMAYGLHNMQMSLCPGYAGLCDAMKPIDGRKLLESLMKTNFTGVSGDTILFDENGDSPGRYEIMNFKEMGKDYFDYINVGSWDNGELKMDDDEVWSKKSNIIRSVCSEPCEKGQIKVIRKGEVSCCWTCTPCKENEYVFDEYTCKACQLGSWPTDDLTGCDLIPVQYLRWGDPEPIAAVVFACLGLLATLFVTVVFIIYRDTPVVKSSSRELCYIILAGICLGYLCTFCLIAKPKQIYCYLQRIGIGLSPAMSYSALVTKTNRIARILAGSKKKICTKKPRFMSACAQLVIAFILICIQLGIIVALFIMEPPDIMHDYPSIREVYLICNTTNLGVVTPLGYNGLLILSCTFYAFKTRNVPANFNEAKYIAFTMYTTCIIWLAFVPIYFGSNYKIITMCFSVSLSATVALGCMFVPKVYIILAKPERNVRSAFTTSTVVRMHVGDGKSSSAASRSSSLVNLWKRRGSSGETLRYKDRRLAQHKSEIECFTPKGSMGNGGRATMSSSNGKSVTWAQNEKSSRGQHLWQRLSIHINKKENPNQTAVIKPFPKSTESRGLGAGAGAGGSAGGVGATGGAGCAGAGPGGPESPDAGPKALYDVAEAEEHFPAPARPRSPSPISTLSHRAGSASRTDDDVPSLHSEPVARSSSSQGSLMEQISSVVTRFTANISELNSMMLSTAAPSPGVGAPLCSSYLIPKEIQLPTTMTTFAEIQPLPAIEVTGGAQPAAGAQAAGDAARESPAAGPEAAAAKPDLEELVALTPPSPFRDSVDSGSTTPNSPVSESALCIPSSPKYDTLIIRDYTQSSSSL
CB1 (h), sequence (P21554 whole entry): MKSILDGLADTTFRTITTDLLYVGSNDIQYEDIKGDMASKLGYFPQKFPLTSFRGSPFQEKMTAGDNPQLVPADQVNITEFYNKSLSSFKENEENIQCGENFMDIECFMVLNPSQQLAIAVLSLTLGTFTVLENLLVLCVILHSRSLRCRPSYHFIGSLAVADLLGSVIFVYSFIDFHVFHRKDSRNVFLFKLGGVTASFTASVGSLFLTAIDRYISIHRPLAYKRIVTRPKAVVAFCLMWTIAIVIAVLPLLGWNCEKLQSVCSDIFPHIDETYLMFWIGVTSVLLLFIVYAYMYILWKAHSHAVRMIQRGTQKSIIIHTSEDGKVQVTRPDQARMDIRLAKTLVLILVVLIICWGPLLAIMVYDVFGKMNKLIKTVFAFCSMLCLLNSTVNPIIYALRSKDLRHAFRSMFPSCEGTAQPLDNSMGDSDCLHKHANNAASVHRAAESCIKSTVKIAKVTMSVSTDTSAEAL
AR (h), sequence (P10275 whole entry): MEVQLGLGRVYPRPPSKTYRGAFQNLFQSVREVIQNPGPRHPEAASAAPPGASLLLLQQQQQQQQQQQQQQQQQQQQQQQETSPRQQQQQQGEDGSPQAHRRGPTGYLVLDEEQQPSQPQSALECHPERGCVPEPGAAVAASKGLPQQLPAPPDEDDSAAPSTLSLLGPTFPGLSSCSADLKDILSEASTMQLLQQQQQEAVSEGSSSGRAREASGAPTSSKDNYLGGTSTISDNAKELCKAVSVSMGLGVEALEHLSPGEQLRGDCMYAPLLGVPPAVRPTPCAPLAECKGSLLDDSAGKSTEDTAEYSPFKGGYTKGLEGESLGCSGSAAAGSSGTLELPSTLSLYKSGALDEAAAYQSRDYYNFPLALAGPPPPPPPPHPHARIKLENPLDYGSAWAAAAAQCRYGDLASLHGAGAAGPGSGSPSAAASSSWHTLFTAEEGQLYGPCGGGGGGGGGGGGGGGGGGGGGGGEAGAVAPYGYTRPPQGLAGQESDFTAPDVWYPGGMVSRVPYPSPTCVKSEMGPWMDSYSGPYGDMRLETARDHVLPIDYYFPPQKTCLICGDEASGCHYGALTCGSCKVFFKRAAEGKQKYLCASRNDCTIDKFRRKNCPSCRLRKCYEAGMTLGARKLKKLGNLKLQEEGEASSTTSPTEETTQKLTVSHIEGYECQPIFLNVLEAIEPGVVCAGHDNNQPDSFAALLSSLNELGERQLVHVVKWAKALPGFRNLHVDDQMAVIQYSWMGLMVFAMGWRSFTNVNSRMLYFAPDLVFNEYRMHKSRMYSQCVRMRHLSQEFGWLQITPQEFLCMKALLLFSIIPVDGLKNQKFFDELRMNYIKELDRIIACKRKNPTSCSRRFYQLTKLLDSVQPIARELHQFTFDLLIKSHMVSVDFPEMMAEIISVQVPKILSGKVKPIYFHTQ
PDE3A (h), sequence (Q14432 whole entry): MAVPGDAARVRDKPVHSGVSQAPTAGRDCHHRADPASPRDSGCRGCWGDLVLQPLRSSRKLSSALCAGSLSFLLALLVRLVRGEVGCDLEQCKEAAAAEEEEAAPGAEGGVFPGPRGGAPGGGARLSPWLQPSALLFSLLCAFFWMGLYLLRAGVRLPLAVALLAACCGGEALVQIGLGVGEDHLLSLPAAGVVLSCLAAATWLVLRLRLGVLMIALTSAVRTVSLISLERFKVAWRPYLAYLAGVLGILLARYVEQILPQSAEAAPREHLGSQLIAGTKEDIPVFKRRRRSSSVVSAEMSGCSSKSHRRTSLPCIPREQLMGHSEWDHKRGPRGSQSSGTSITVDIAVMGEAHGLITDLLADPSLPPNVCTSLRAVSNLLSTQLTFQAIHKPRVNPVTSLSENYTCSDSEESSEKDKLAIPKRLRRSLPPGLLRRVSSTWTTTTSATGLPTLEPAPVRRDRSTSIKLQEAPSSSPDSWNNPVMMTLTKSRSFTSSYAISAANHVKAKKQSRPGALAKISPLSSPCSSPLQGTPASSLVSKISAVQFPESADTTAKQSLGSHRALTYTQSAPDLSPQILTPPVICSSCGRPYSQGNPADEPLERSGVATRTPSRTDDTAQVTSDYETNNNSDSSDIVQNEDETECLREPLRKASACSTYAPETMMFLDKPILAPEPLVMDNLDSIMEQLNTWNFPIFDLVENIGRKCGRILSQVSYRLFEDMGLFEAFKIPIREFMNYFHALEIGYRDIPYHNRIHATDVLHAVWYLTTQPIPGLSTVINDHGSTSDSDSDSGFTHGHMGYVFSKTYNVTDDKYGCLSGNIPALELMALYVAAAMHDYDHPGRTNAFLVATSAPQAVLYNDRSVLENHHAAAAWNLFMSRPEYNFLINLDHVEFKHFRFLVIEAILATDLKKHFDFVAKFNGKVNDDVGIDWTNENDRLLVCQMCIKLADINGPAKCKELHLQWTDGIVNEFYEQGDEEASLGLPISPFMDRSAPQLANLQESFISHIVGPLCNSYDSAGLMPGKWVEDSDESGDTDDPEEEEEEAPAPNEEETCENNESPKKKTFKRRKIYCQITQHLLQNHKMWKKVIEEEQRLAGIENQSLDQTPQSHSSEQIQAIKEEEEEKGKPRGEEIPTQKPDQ
Experimental for P-gp (MDR1): In vitro Absorption, Distribution, Metabolism, and Excretion—The compound of Formula (III) was assessed at a concentration of 5 μM in cell permeability models.

By microsomal CLint is commonly meant a measure of how fast metabolising enzymes remove a compound, apart from limits set by blood flow. What is called hepatocyte CLint is the capacity of the preparation to metabolise the compound, expressed as a volume cleared per time. One may read the inhibition as the percentage by which the read-out fell short of the control. As a reminder, the Papp A→B is the apparent permeability from the apical to the basolateral side of a cell layer. Low values mean poor permeation, high ones ready permeation. The Papp B→A is the apparent permeability from the basolateral to the apical side of a cell layer. The term efflux ratio denotes the permeability from basolateral to apical divided by that in the opposite direction, in the common usage. On to `C=CC(=O)N[C@H]1CCC[C@H]1NC(=O)c1sc2nccc3c2c1NC(=O)N3c1cnc(CC(C)C)cc1C` (atropisomer, axis not shown) [compound of Formula (III), N-((1R,2S)-2-Acrylamidocyclopentyl)-5-(S)-(6-isobutyl-4-methylpyridin-3-yl)-4-oxo-4,5-dihydro-3H-1-thia-3,5,8-triazaacenaphthylene-2-carboxamide], for which the “Extraction Ratio, liver microsomes” value in [1] (Dog) was found to be 0.65. The microsomal CLint in data set [1] (dog, liver microsomes) turned out to be 40.6 µL/min/mg. Also, the half-life stood at 17.1 min in data set [1] (dog, liver microsomes, read-out: T1/2, liver microsomes) and 75.3 min in data set [2] (monkey, hepatocytes, read-out: T1/2, hepatocytes). Also, the “Extraction Ratio, hepatocytes” value in data set [2] came to 0.78. The hepatocyte CLint in [2] (monkey, hepatocytes) was 66.3 µL/min/1e6 cells. The blood plasma ratio at 1 μM in [3] came to 1.37. In addition, the inhibition at 10 µM against N neuronal α4β2 (h) was < 10%; at CB2 (h), < 10%; at GR (h), < 10%; on mGluR5 (h) it was < 10%; against Ach (h) it was 11%; on Beta2 (h), < 10%. In addition, the inhibition at 10 µM at PDE3A (h) is < 10%; against CB1 (h), < 10%; on PDE4D2 (h), < 10%; on MAO-A it was 14%; at AR (h) it was < 10%. Also, the “% Inhibition at 10 μM” value with NMDA and with Ca channel was “— (no inhibition observed)” in each case. The “inhibition of turnover by ketoconazole” value against CYP3A4 is on record as > 97%. In the data set with P-gp (MDR1), the apparent permeability from apical to basolateral (Papp A→B) at 5 μM is < 0.483 ×10⁻⁶ cm/s. The basolateral-to-apical permeability (Papp B→A) at 5 μM with P-gp (MDR1) amounted to 55.4 ×10⁻⁶ cm/s. Besides, the efflux ratio at 5 μM with P-gp (MDR1) is > 115.
